According to patent US9464106B2, “Oligonucleotides useful for detecting and analyzing nucleic acids of interest” (Exiqon A/S, priority 2002, dated 2016):
l = locked nucleic acid (LNA); [5mC] = 5-methylcytosine; d = 2'-deoxy (DNA)

Tested on: yeast HSP78 (YDR258C) sequence
Experiment: Duplex melting temperatures of HSP78 25-mer capture probes (UV spectrophotometer)
Settings: 25-mer capture probe duplex with complementary target; design PM = perfectly matched, MM = single mismatch; DNA, LNA_T (T) or LNA_TC (TC) substituted

Question: How did the “Average duplex melting temp.” value turn out when “12731 (DNA TTGGAAACATCGCGGTGCGCTTTTT; sugars from the 5' end lldddddlddlddddldldddldld, [5mC] at 8, 11, 18, backbone not given here) [compound 12731]” was run?
Answer: The value was 72 °C.

Question: For “12732 (DNA GAAACATCGGGGAGCGCTTTTTCAA; sugars from the 5' end ddddldllddddddldddddldldd, [5mC] at 5, 8, 15, 23, backbone not given here) [compound 12732]”, which “Average duplex melting temp.” value is on record?
Answer: The value was 74.8 °C.

Question: With “12733 (DNA GACAGCCTCAGTAAATTGGCCACCA; sugars from the 5' end ddlddldldddddddlldddlddld, [5mC] at 3, 6, 21, 24, backbone not given here) [compound 12733]” as the substance, how does the “Average duplex melting temp.” value read?
Answer: Its value is 77.4 °C.

Question: For “12734 (DNA CCGATTAAACGACAGACAGTATGCT; sugars from the 5' end llddlldddlddddddlddldldld, [5mC] at 1, 2, 10, 17, 24, backbone not given here) [compound 12734]”, which “Average duplex melting temp.” value is on record?
Answer: The value was 70.2 °C.

Question: For “12735 (DNA ATCAAATAGGAAATCAGCTAAAGCC; sugars from the 5' end dlldddldddddddlddllddddld, [5mC] at 3, 15, 18, 24, backbone not given here) [compound 12735]”, which “Average duplex melting temp.” value is on record?
Answer: The value was 64.6 °C.

Question: With “12736 (DNA GACCTAAGAACAAAAAGCTGGCAAT; sugars from the 5' end ddllldddddlddddddllddlddd, all C 5-methyl, backbone not given here) [compound 12736]” as the substance, how does the “Average duplex melting temp.” value read?
Answer: Its value is 71.4 °C.

Question: Which “Average duplex melting temp.” value does the source give for “12737 (DNA AAATAGCAGCAAAGGCCTCGTCTTG; sugars from the 5' end dddlddlddldddddldlldlddld, [5mC] at 7, 10, 16, 19, backbone not given here) [compound 12737]” here?
Answer: Its value is 79.3 °C.

Question: With “12738 (DNA ATAGCAGCAATGCCCTCGTCTTGGC; sugars from the 5' end dlddldddddlddddldddldlddd, [5mC] at 5, 20, backbone not given here) [compound 12738]” as the substance, how does the “Average duplex melting temp.” value read?
Answer: Its value is 71.5 °C.

Question: “12739 (DNA GCAATGGCCTCGACTTGGCCAACGA; sugars from the 5' end d10 l1 d2 l1 d11, [5mC] at 11, 14, backbone not given here) [compound 12739]” was tested. Which “Average duplex melting temp.” value did it give?
Answer: Its value is 73.1 °C.

Question: “12740 (DNA GATGAACTCAGGAGGATAGGATCTT; sugars from the 5' end ddldddllldddddddlddddllld, all C 5-methyl, backbone not given here) [compound 12740]” was tested. Which “Average duplex melting temp.” value did it give?
Answer: The value was 70.4 °C.

Question: With “12741 (DNA TCAGTTAGCCAAACCTTCGCTTCAT; sugars from the 5' end dlddlddddlddddddlddlddldd, [5mC] at 2, 10, 20, 23, backbone not given here) [compound 12741]” as the substance, how does the “Average duplex melting temp.” value read?
Answer: Its value is 70.6 °C.

Question: How did the “Average duplex melting temp.” value turn out when “12742 (DNA GTTGCCATGGAGATCAAAATCTGTC; sugars from the 5' end dlddlldlddddddlddddllddld, [5mC] at 5, 6, 15, 21, backbone not given here) [compound 12742]” was run?
Answer: Its value is 61.6 °C.

Question: For “12743 (DNA AGACGTACAGCAACAGAAATAGCAG; sugars from the 5' end dddldldlddlddddddddlddldd, [5mC] at 4, 8, 11, 23, backbone not given here) [compound 12743]”, which “Average duplex melting temp.” value is on record?
Answer: Its value is 73.6 °C.

Question: “12744 (DNA TTTGGTAGCACGTCAAGCTTAGTAT; sugars from the 5' end ldlddlddldlddddddldlddldd, [5mC] at 9, 11, 18, backbone not given here) [compound 12744]” was tested. Which “Average duplex melting temp.” value did it give?
Answer: Its value is 73.3 °C.

Question: With “12745 (DNA ATAAAGCTGGCATTAGGTCTCTTTT; sugars from the 5' end dlddddllddlddddddllldllld, [5mC] at 7, 11, 19, backbone not given here) [compound 12745]” as the substance, how does the “Average duplex melting temp.” value read?
Answer: The value was 74 °C.

Question: Which “Average duplex melting temp.” value does the source give for “12746 (DNA TTTTTCGGCCAATCGATCTTGAATT; sugars from the 5' end ldldllddlldddddddldldddld, [5mC] at 6, 9, 10, 18, backbone not given here) [compound 12746]” here?
Answer: The value was 71 °C.

Question: “12747 (DNA CACTCTAACAGTATCGCCGTTTCTA; sugars from the 5' end ldldldddldddddddlddldllld, [5mC] at 1, 3, 5, 9, 17, 23, backbone not given here) [compound 12747]” was tested. Which “Average duplex melting temp.” value did it give?
Answer: Its value is 75.2 °C.

Question: How did the “Average duplex melting temp.” value turn out when “12748 (DNA TCAATGGCCTTGGACCATATAATTG; sugars from the 5' end llddlddldllddddldldlddlld, [5mC] at 2, 8, 16, backbone not given here) [compound 12748]” was run?
Answer: The value was 74.8 °C.

Question: Which “Average duplex melting temp.” value does the source give for “12749 (DNA AAAACGACAGCAAAAGGCTTTCTTC; sugars from the 5' end ddddlddlddlddddddlldlldld, [5mC] at 5, 8, 11, 18, 22, backbone not given here) [compound 12749]” here?
Answer: Its value is 72 °C.

Question: For “12750 (DNA ATTGACCTCAAATCTTTCTTGGATA; sugars from the 5' end dllddlllldddddlldllldddld, [5mC] at 6, 7, 9, 18, backbone not given here) [compound 12750]”, which “Average duplex melting temp.” value is on record?
Answer: The value was 72.2 °C.

Question: “12751 (DNA CCCAACTTTGTGACGTTTAATAAAA; sugars from the 5' end llldddllddlddddlllddldddd, [5mC] at 1, 2, 3, backbone not given here) [compound 12751]” was tested. Which “Average duplex melting temp.” value did it give?
Answer: The value was 67.6 °C.

Question: Which “Average duplex melting temp.” value does the source give for “12752 (DNA ACCATCATCACCCAACTTTGTGTCG; DNA, backbone not given here; further chemistry not fully specified) [compound 12752]” here?
Answer: Its value is 67.5 °C.

Question: How did the “Average duplex melting temp.” value turn out when “12753 (DNA CAATGATCGTGTTACGGAAATCAAC; DNA, backbone not given here; further chemistry not fully specified) [compound 12753]” was run?
Answer: Its value is 64.2 °C.

Question: With “12754 (DNA TGGCCTAGGGAATCGGTCAGCTTAC; DNA, backbone not given here; further chemistry not fully specified) [compound 12754]” as the substance, how does the “Average duplex melting temp.” value read?
Answer: Its value is 70.1 °C.

Question: Which “Average duplex melting temp.” value does the source give for “12755 (DNA TTGGAAACATCGGGGTGCGCTTTTT; DNA, backbone not given here; further chemistry not fully specified) [compound 12755]” here?
Answer: The value was 70.8 °C.

Question: Which “Average duplex melting temp.” value does the source give for “12756 (DNA GAAACATCGGGGTGCGCTTTTTCAA; DNA, backbone not given here; further chemistry not fully specified) [compound 12756]” here?
Answer: Its value is 68.7 °C.

Question: With “12757 (DNA GACAGCCTCAGTTAATTGGCCACCA; DNA, backbone not given here; further chemistry not fully specified) [compound 12757]” as the substance, how does the “Average duplex melting temp.” value read?
Answer: Its value is 70.2 °C.

Question: How did the “Average duplex melting temp.” value turn out when “12758 (DNA CCGATTAAACGAGAGACAGTATGCT; DNA, backbone not given here; further chemistry not fully specified) [compound 12758]” was run?
Answer: The value was 65.4 °C.

Question: Which “Average duplex melting temp.” value does the source give for “12759 (DNA ATCAAATAGGAATTCAGCTAAAGCC; DNA, backbone not given here; further chemistry not fully specified) [compound 12759]” here?
Answer: Its value is 61.5 °C.
